According to US7238701B2, “Substituted tetrahydrobenzothienopyrimidinamine compounds useful for treating hyper-proliferative disorders” (Bayer Pharmaceuticals Corporation, priority 2003, dated 2007):

Key:
[1] = test system: A431cells (human epidermoid carcinoma); experiment: In vitro tumor cell proliferation assay (Cell Titer-Glo luminescent cell viability), A431 cells; format: cell-based; details: A-431, 72 h, 72 hours drug exposure, 10% Fetal Bovine Serum, ATP luminescence readout, read-out: IC50 (50% inhibition of cell proliferation)
Method in brief: (§1)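 ATP luminescence (CellTiter-Glo) measured proliferation after 72 h compound exposure at 37 °C, giving IC50 values. Serial dilutions spanning 64 pM–100 μM in 0.1% DMSO were applied one day after plating 2.5×10^3 cells/well in RPMI plus 10% fetal bovine serum.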

[2] = test system: BT474 (human breast carcinoma); experiment: In vitro tumor cell proliferation assay (Cell Titer-Glo luminescent cell viability), BT474 cells; format: cell-based; details: BT-474, 72 hours drug exposure, 10% Fetal Bovine Serum, ATP luminescence readout, read-out: IC50 (50% inhibition of cell proliferation)
Method in brief: as §1

Row | SMILES | IC50 [1] [µM] | IC50 [2] [µM]
1 | COCCNCCC1CCc2c(sc3ncnc(Nc4ccc(OCc5cccc(F)c5)c(Cl)c4)c23)C1 (stereo not drawn) [Example 142, N-{3-chloro-4-[(3-fluorobenzyl)oxy]phenyl}-7-{2-[(2-methoxyethyl)amino]ethyl}-5,6,7,8-tetrahydro[1]benzothieno[2,3-d]pyrimidin-4-amine] | < 5 | < 5
2 | CCOC(=O)CC1CCc2c(sc3ncnc(Nc4ccc(OCc5ccc(F)cc5)c(Cl)c4)c23)C1 (stereo not drawn) [Example 143, ethyl [4-({3-chloro-4-[(4-fluorobenzyl)oxy]phenyl}amino)-5,6,7,8-tetrahydro[1]benzothieno[2,3-d]pyrimidin-7-yl]acetate] | < 50 | < 5
3 | O=C(CC1CCc2c(sc3ncnc(Nc4ccc(OCc5ccc(F)cc5)c(Cl)c4)c23)C1)N1CCOCC1 (stereo not drawn) [Example 144, N-{3-chloro-4-[(4-fluorobenzyl)oxy]phenyl}-7-(2-morpholin-4-yl-2-oxoethyl)-5,6,7,8-tetrahydro[1]benzothieno[2,3-d]pyrimidin-4-amine] | < 50 | < 50
4 | COCCNC(=O)CC1CCc2c(sc3ncnc(Nc4ccc(OCc5ccc(F)cc5)c(Cl)c4)c23)C1 (stereo not drawn) [Example 146, 2-[4-({3-chloro-4-[(4-fluorobenzyl)oxy]phenyl}amino)-5,6,7,8-tetrahydro[1]benzothieno[2,3-d]pyrimidin-7-yl]-N-(2-methoxyethyl)acetamide] | < 50 | < 50
5 | CS(=O)(=O)CCNC(=O)CC1CCc2c(sc3ncnc(Nc4ccc(OCc5ccc(F)cc5)c(Cl)c4)c23)C1 (stereo not drawn) [Example 147, 2-[4-({3-chloro-4-[(4-fluorobenzyl)oxy]phenyl}amino)-5,6,7,8-tetrahydro[1]benzothieno[2,3-d]pyrimidin-7-yl]-N-[2-(methylsulfonyl)ethyl]acetamide] | < 50 | < 50
6 | CN(C)[C@H]1CCN(C(=O)CC2CCc3c(sc4ncnc(Nc5ccc(OCc6ccc(F)cc6)c(Cl)c5)c34)C2)C1 (stereo partly drawn) [Example 148, N-{3-chloro-4-[(4-fluorobenzyl)oxy]phenyl}-7-{2-[(3S)-3-(dimethylamino)pyrrolidin-1-yl]-2-oxoethyl}-5,6,7,8-tetrahydro[1]benzothieno[2,3-d]pyrimidin-4-amine] | < 5 | < 5
7 | O=C(CC1CCc2c(sc3ncnc(Nc4ccc(OCc5ccc(F)cc5)c(Cl)c4)c23)C1)N1CCCC1 (stereo not drawn) [Example 149, N-{3-chloro-4-[(4-fluorobenzyl)oxy]phenyl}-7-(2-oxo-2-pyrrolidin-1-ylethyl)-5,6,7,8-tetrahydro[1]benzothieno[2,3-d]pyrimidin-4-amine] | < 50 | < 50
8 | CN1CCN(C(=O)CC2CCc3c(sc4ncnc(Nc5ccc(OCc6ccc(F)cc6)c(Cl)c5)c34)C2)CC1 (stereo not drawn) [Example 150, N-{3-chloro-4-[(4-fluorobenzyl)oxy]phenyl}-7-[2-(4-methylpiperazin-1-yl)-2-oxoethyl]-5,6,7,8-tetrahydro[1]benzothieno[2,3-d]pyrimidin-4-amine] | < 5 | < 5
9 | COCCN(C)C(=O)CC1CCc2c(sc3ncnc(Nc4ccc(OCc5ccc(F)cc5)c(Cl)c4)c23)C1 (stereo not drawn) [Example 151, 2-[4-({3-chloro-4-[(4-fluorobenzyl)oxy]phenyl}amino)-5,6,7,8-tetrahydro[1]benzothieno[2,3-d]pyrimidin-7-yl]-N-(2-methoxyethyl)-N-methylacetamide] | < 50 | < 50
10 | COCCN(C)CCC1CCc2c(sc3ncnc(Nc4ccc(OCc5ccc(F)cc5)c(Cl)c4)c23)C1 (stereo not drawn) [Example 152, N-{3-chloro-4-[(4-fluorobenzyl)oxy]phenyl}-7-{2-[(2-methoxyethyl)(methyl)amino]ethyl}-5,6,7,8-tetrahydro[1]benzothieno[2,3-d]pyrimidin-4-amine] | < 5 | < 5
11 | Fc1ccc(COc2ccc(Nc3ncnc4sc5c(c34)CCC(CCN3CCCC3)C5)cc2Cl)cc1 (stereo not drawn) [Example 153, N-{3-chloro-4-[(4-fluorobenzyl)oxy]phenyl}-7-(2-pyrrolidin-1-ylethyl)-5,6,7,8-tetrahydro[1]benzothieno[2,3-d]pyrimidin-4-amine] | < 5 | < 5
12 | CN1CCN(CCC2CCc3c(sc4ncnc(Nc5ccc(OCc6ccc(F)cc6)c(Cl)c5)c34)C2)CC1 (stereo not drawn) [Example 154, N-{3-chloro-4-[(4-fluorobenzyl)oxy]phenyl}-7-[2-(4-methylpiperazin-1-yl)ethyl]-5,6,7,8-tetrahydro[1]benzothieno[2,3-d]pyrimidin-4-amine] | < 5 | < 5
13 | CN(C)[C@H]1CCN(CCC2CCc3c(sc4ncnc(Nc5ccc(OCc6ccc(F)cc6)c(Cl)c5)c34)C2)C1 (stereo partly drawn) [Example 157, N-{3-chloro-4-[(4-fluorobenzyl)oxy]phenyl}-7-{2-[(3S)-3-(dimethylamino)pyrrolidin-1-yl]ethyl}-5,6,7,8-tetrahydro[1]benzothieno[2,3-d]pyrimidin-4-amine] | < 5 | < 5
14 | CN1CCN(CCC2CCc3c(sc4ncnc(Nc5ccc(OCc6cccc(F)c6)c(Cl)c5)c34)C2)CC1 (stereo not drawn) [Example 158, N-{3-chloro-4-[(3-fluorobenzyl)oxy]phenyl}-7-[2-(4-methylpiperazin-1-yl)ethyl]-5,6,7,8-tetrahydro[1]benzothieno[2,3-d]pyrimidin-4-amine] | < 5 | < 5
15 | COCCN(C)CCC1CCc2c(sc3ncnc(Nc4ccc(OCc5cccc(F)c5)c(Cl)c4)c23)C1 (stereo not drawn) [Example 159, N-{3-chloro-4-[(3-fluorobenzyl)oxy]phenyl}-7-{2-[(2-methoxyethyl)(methyl)amino]ethyl}-5,6,7,8-tetrahydro[1]benzothieno[2,3-d]pyrimidin-4-amine] | < 5 | < 5
16 | CN(C)[C@@H]1CCN(CCC2CCc3c(sc4ncnc(Nc5ccc(OCc6cccc(F)c6)c(Cl)c5)c34)C2)C1 (stereo partly drawn) [Example 160] | < 5 | < 5
17 | Fc1cccc(COc2ccc(Nc3ncnc4sc5c(c34)CCC(CCN3CCCC3)C5)cc2Cl)c1 (stereo not drawn) [Example 161, N-{3-chloro-4-[(3-fluorobenzyl)oxy]phenyl}-7-(2-pyrrolidin-1-ylethyl)-5,6,7,8-tetrahydro[1]benzothieno[2,3-d]pyrimidin-4-amine] | < 5 | < 5
18 | CN(C)CCNCCC1CCc2c(sc3ncnc(Nc4ccc(OCc5cccc(F)c5)c(Cl)c4)c23)C1 (stereo not drawn) [Example 162, N′-{2-[4-({3-chloro-4-[(3-fluorobenzyl)oxy]phenyl}amino)-5,6,7,8-tetrahydro[1]benzothieno[2,3-d]pyrimidin-7-yl]ethyl}-N,N-dimethylethane-1,2-diamine] | < 5 | < 5
19 | OCCNCCC1CCc2c(sc3ncnc(Nc4ccc(OCc5cccc(F)c5)c(Cl)c4)c23)C1 (stereo not drawn) [Example 163, 2-({2-[4-({3-chloro-4-[(3-fluorobenzyl)oxy]phenyl}amino)-5,6,7,8-tetrahydro[1]benzothieno[2,3-d]pyrimidin-7-yl]ethyl}amino)ethanol] | < 5 | < 5
20 | CN(C)CCC1CCc2c(sc3ncnc(Nc4ccc(OCc5cccc(F)c5)c(Cl)c4)c23)C1 (stereo not drawn) [Example 164, N-{3-chloro-4-[(3-fluorobenzyl)oxy]phenyl}-7-[2-(dimethylamino)ethyl]-5,6,7,8-tetrahydro[1]benzothieno[2,3-d]pyrimidin-4-amine] | < 5 | < 5
21 | OCCN(CCO)CCC1CCc2c(sc3ncnc(Nc4ccc(OCc5cccc(F)c5)c(Cl)c4)c23)C1 (stereo not drawn) [Example 165, 2,2′-({2-[4-({3-chloro-4-[(3-fluorobenzyl)oxy]phenyl}amino)-5,6,7,8-tetrahydro[1]benzothieno[2,3-d]pyrimidin-7-yl]ethyl}imino)diethanol] | < 5 | < 5
22 | Fc1cccc(COc2ccc(Nc3ncnc4sc5c(c34)CCC(CCNCCN3CCOCC3)C5)cc2Cl)c1 (stereo not drawn) [Example 166, N-{3-chloro-4-[(3-fluorobenzyl)oxy]phenyl}-7-{2-[(2-morpholin-4-ylethyl)amino]ethyl}-5,6,7,8-tetrahydro[1]benzothieno[2,3-d]pyrimidin-4-amine] | < 50 | < 5
23 | Fc1cccc(COc2ccc(Nc3ncnc4sc5c(c34)CCC(CCN3CCCCC3)C5)cc2Cl)c1 (stereo not drawn) [Example 167, N-{3-chloro-4-[(3-fluorobenzyl)oxy]phenyl}-7-(2-piperidin-1-ylethyl)-5,6,7,8-tetrahydro[1]benzothieno[2,3-d]pyrimidin-4-amine] | < 5 | < 5
24 | COCCN1CCN(CCC2CCc3c(sc4ncnc(Nc5ccc(OCc6cccc(F)c6)c(Cl)c5)c34)C2)CC1 (stereo not drawn) [Example 168, N-{3-chloro-4-[(3-fluorobenzyl)oxy]phenyl}-7-{2-[4-(2-methoxyethyl)piperazin-1-yl]ethyl}-5,6,7,8-tetrahydro[1]benzothieno[2,3-d]pyrimidin-4-amine] | < 5 | < 5
25 | CNCCC1CCc2c(sc3ncnc(Nc4ccc(OCc5cccc(F)c5)c(Cl)c4)c23)C1 (stereo not drawn) [Example 169, N-{3-chloro-4-[(3-fluorobenzyl)oxy]phenyl}-7-[2-(methylamino)ethyl]-5,6,7,8-tetrahydro[1]benzothieno[2,3-d]pyrimidin-4-amine] | < 5 | < 5
26 | Fc1cccc(COc2ccc(Nc3ncnc4sc5c(c34)CCC(CCn3ccnc3)C5)cc2Cl)c1 (stereo not drawn) [Example 170, N-{3-chloro-4-[(3-fluorobenzyl)oxy]phenyl}-7-[2-(1H-imidazol-1-yl)ethyl]-5,6,7,8-tetrahydro[1]benzothieno[2,3-d]pyrimidin-4-amine] | < 5 | < 5
27 | Fc1cccc(COc2ccc(Nc3ncnc4sc5c(c34)CCC(CCN3CCN(Cc4ccncc4)CC3)C5)cc2Cl)c1 (stereo not drawn) [Example 171, N-{3-chloro-4-[(3-fluorobenzyl)oxy]phenyl}-7-{2-[4-(pyridin-4-ylmethyl)piperazin-1-yl]ethyl}-5,6,7,8-tetrahydro[1]benzothieno[2,3-d]pyrimidin-4-amine] | < 5 | < 5
